Laboratory results published in PMC10349806 (Nature Communications, 2023).
Substitutions are numbered along the chain they refer to. “And” between values parts separate entries of the source, which are not always exact repeats. Equal values may be shown once.

Assays:
[1] = biological target: T1, PfCRT variant E372A (Plasmodium falciparum, UniProt Q9N623, A220S/E372A/I356T/K76T/M74I/N326S/N75E/Q271E/R371I); assay: CQ uptake assay, oocytes expressing E372A; assay type: cell-based
T1 sequence (Q9N623 1-424 M74I/N75E/K76T/A220S/Q271E/N326S/I356T/R371I/E372A): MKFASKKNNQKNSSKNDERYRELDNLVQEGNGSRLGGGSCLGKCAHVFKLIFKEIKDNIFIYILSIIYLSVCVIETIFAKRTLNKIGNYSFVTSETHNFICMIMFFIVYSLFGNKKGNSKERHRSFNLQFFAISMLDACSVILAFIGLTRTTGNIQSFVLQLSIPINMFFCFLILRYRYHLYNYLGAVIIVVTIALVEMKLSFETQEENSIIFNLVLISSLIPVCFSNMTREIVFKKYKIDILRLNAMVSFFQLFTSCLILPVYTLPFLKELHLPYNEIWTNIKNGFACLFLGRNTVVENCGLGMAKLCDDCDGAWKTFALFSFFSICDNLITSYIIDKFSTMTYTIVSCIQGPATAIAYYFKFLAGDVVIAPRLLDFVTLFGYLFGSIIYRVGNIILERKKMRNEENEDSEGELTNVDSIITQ
Protocol: (§1) Site-directed mutagenesis of PfCRT^Dd2 was performed as described using the megaprimer method with overlap extension[21],[54]. The primer pairs used are listed in Supplementary Table 6. Please note that a codon-optimized and oocyte-adapted version of PfCRT^Dd2 was used[22] (Supplementary Fig. 16). The resulting DNA fragment was cloned into the SP64T expression vector and verified by sequencing.
(§2) Oocytes were obtained as described previously. Briefly, adult (>2 years old) female X. laevis frogs (NASCO) were anesthetized in a cooled solution of ethyl 3-amino benzoate methanesulfonate (0.1%, w/v), followed by a surgical removal of parts of the ovary. The ovary lobes were carefully dissected and small pieces of oocytes were incubated in Ca^2+-free ND96 buffer (96 mM NaCl, 2 mM KCl, 1 mM MgCl2 buffered with 5 mM HEPES/NaOH, pH 7.5) supplemented with collagenase D (0.1%, w/v; Roche), BSA (0.5%, w/v), and 9 mm Na2HPO4 at 18 °C for 14-16 h while gentle shaking. After incubation, the oocytes were carefully washed several times with ND96 buffer (96 mM NaCl, 2 mM KCl, 1.8 mM CaCl2, 1 mM MgCl2 buffered with 5 mM HEPES/NaOH, pH 7.5) supplemented with 100 mg l^−1 gentamycin). Defolliculated and healthy-looking stage V-VI oocytes were manually selected for RNA microinjection. The RNA was generated as following: The codon-optimized sequences of PfCRT variants were cloned into the pSP64T expression vector. After vector linearization using the restriction endonucleases BamHI or SalI (New England Biolabs), transcription was performed using the in vitro SP6 mMessage mMachine Kit (Ambion)[34]. The obtained RNA was kept at −80 °C and diluted with nuclease-free water to a concentration of 0.6 μg μl^−1. Precision-bore glass capillary tubes (3.5-inch glass capillaries; Drummond Scientific Co.) were pulled on a vertical puller (P-87 Flaming/Brown micropipette puller, Sutter Instrument Co.), graduated, and placed on a microinjector (Nanoject II Auto-Nanoliter Injector, Drummond Scientific Co.). 50 nl of nuclease-free water alone (control oocytes) or 50 nl of 0.6 μg μl^−1 RNA were injected under stereomicroscopic control. Injected oocytes were incubated for 46–72 h at 18 °C with twice-daily buffer changes before usage in experiments.
(§3) Drug uptake assays were performed as described previously[21],[22],[24],[34]. […] The direction of radio-labeled drug transport is here from the mostly acidic extracellular solution (pH 4.5 or 6.0, as indicated) into the oocyte cytosol (pH ∼ 7.2), which corresponds to the efflux of drug from the acidic digestive vacuole (pH 5.2) into the parasite cytoplasm (pH 7.2). The topology of PfCRT in the oolemma is such that both the N- and C-terminus face the extracellular milieu[3],[22]. In the parasite, the N- and C-terminus face the lumen of the digestive vacuole. CQ uptake kinetics were performed by incubating oocytes in ND96 buffer adjusted to a pH of 4.5, 5.0, 5.5, or 6.0 and supplemented with 50 nM [^3H]CQ and one of 7 different CQ concentrations (10 µM, 50 µM, 100 µM, 200 µM, 300 µM, 400 µM, 500 µM CQ). The reaction was stopped at the 60 min time point, which is in the linear uptake range[22],[34] (Supplementary Fig. 17). For determination of the amount of drug uptake for each oocyte, the reaction medium was removed and the oocytes were washed three times with 2 ml of ice-cold ND96 buffer. Each oocyte was individually transferred to a scintillation vial containing 5% sodium dodecyl sulfate (200 μl) for lysis. The radioactivity of each sample was measured using a liquid scintillation analyzer Tri-Carb 4910 TR (PerkinElmer). Oocytes that were injected with water instead of RNA were analyzed in parallel, representing the uptake of a drug by diffusion and/or endogenous permeation pathways. The resulting value represents the “background“ level of drug accumulation in oocytes (in-depth discussion in[22]). […]

[2] = biological target: T2, PfCRT variant D310A (Plasmodium falciparum, UniProt Q9N623, A220S/D310A/I356T/K76T/M74I/N326S/N75E/Q271E/R371I); assay: CQ uptake assay, oocytes expressing D310A; assay type: cell-based
T2 sequence (Q9N623 1-424 M74I/N75E/K76T/A220S/Q271E/D310A/N326S/I356T/R371I): T1 sequence (Q9N623 1-424 M74I/N75E/K76T/A220S/Q271E/N326S/I356T/R371I/E372A) with D310A, A372E
Protocol: as §1, §2, §3

[3] = E372A, 50 µM CQ, 1 h, mean ± SEM
[4] = pH 4.5, single replicates, Fig 1d left
[5] = D310A, 50 µM CQ, 1 h, mean ± SEM

`CCN(CC)CCCC(C)Nc1ccnc2cc(Cl)ccc12` (stereo not shown) [CQ, chloroquine] was tested, and the “Activity at pH 4.5” value [1, 3] was 2.23 ± 0.25 pmol h-1 oocyte-1, the “Activity at pH 6.0” value [1, 3] was 4.71 ± 0.40 pmol h-1 oocyte-1 and the R-value ([1]; E372A, CQ transport at pH 4.5 / pH 6.0) was 0.49 ± 0.08 and 0.49. For the same molecule, the “E372A transport activity pH 4.5” value ([1]; pH 4.5, individual replicates (Fig 6a)) was 3.05 pmol oocyte-1 h-1 and 1.75 pmol oocyte-1 h-1 and 2.16 pmol oocyte-1 h-1 and 1.95 pmol oocyte-1 h-1, the “E3723A transport activity pH 4.5” value [1, 4] was 3.05 pmol oocyte-1 h-1 and 1.75 pmol oocyte-1 h-1 and 2.16 pmol oocyte-1 h-1 and 1.95 pmol oocyte-1 h-1 and the “E372A transport activity pH 6.0” value ([1]; individual replicates (Fig 6a)) was 4.02 pmol oocyte-1 h-1 and 4.13 pmol oocyte-1 h-1 and 6.01 pmol oocyte-1 h-1 and 4.68 pmol oocyte-1 h-1. The “E372A transport activity pH 6.0” value ([1]; single replicates, Fig 1d left) was 4.02 pmol oocyte-1 h-1 and 4.13 pmol oocyte-1 h-1 and 6.01 pmol oocyte-1 h-1 and 4.68 pmol oocyte-1 h-1, the “Activity at pH 4.5” value [2, 5] was 0.96 ± 0.15 pmol h-1 oocyte-1 and the “Activity at pH 6.0” value [2, 5] was 1.25 pmol h-1 oocyte-1 and 1.25 ± 0.18 pmol h-1 oocyte-1. The R-value ([2]; D310A, CQ transport at pH 4.5 / pH 6.0) was 0.77 and 0.77 ± 0.07, the “D310A transport activity pH 4.5” value [2, 4] was 0.65 pmol oocyte-1 h-1 and 1.30 pmol oocyte-1 h-1 and 0.92 pmol oocyte-1 h-1 and the “D310A R-value” ([2]; pH 4.5 vs pH 6.0, Fig 1d left) was 0.79 and 0.92 and 0.61. The “D310A transport activity pH 6.0” value ([2]; pH 6.0, single replicates, Fig 1d left) was 0.82 pmol oocyte-1 h-1 and 1.42 pmol oocyte-1 h-1 and 1.51 pmol oocyte-1 h-1.
